{
  "source": "paper PMC2033597",
  "about": "“The Arg-Gly-Asp-containing peptide, rhodostomin, inhibits in vitro cell adhesion to extracellular matrices and platelet aggregation caused by saos-2 human osteosarcoma cells” (British Journal of Cancer, 1995)",
  "key": {"[1]": {"test_system": "Saos-2 tumour cell-induced platelet aggregation in heparinised human platelet-rich plasma", "assay_type": "cell-based", "conditions": "for IC50: heparinised human PRP preincubated with peptide at 37C for 2 min, then Saos-2 cells, n = 6, read-out: IC50 for inhibition of Saos-2 TCIPA", "description": "Brils JownW d Canmer (15) 71, 265-270 ? 1995 S9okon Press Al rghts reserved 0007-0920/95 $9.00 V The Arg-Gly-Asp-containing peptide, rhodostomin, inhibits in vitro cell adhesion to extracellular matrices and platelet aggregation caused by Saos-2 human osteosarcoma cells H-S Chiang', R-S Yang2 and T-F Huang' 'Pharmacological Institute and 'Department of Orthopaedics, College of Medicine, National Taiwan UniversitY, Taipei, Taiwan. Sumary Saos-2 cells, derived from a primary human osteosarcoma, caused dose-dependent platelet aggrega- tion in heparinised human platelet-rich plasma. […] The cell suspension shortened the plasma recalcification times of normal, factor VIII-deficient and factor IX-deficient human plasmas in a dose- dependent manner. […] Moreover, a monoclonal antibody (MAb) against human tissue factor completely abolished TCIPA. […] Keywords: osteosarcoma; platelet aggregation; tissue factor: integrin; extracellular matrix: Arg-Gly-Asp- containing peptide The formation of a metastatic lesion is the result of a com- plex series of events called the 'metastatic cascade'. Following intravasation, circulating tumour cells interact with a variety of host cells such as effectors of the cellular immune res- ponses, endothelial cells and platelets. The interaction of tumour cells and host platelets may promote the metastatic process (Honn et al., 1992). Indeed, there is evidence that the incidence of lymph node metastasis caused by ten cell lines, from rat renal carcinoma, in vivo correlates well with their ability to induce platelet aggregation in vitro (Pearlstein et al., 1980). Platelets may enhance tumour cell adhesion to endothelial cells and subendothelial surfaces during the haematogenous metastasis process. The cell-cell or cell-extracellular matrix (ECM) interactions of both normal and tumour cells have been proven to be mediated by a variety of plasma memb- rane receptors including the integrin family (Hynes et al., 1987). Integrins are transmembrane proteins which link the ECM with the cell cytoskeleton. Such linkage enables cellular attachment to substrata and forms focal adhesion plaques in distinct plasma membrane regions which establish contact with the matrix (Grunicke, 1990). […] Purified components from snake venoms have been widely studied and found to affect platelet function, including trigramin-like anti-platelet peptides (Huang et al., 1987a, 1991a,b; Shebuski et al., 1989; Rucinski et al., 1990). Trigra- min, an RGD-containing peptide purified from venom of the Trimeresurus gramineus snake, is a specific antagonist of platelet membrane […] (Huang et al., 1987a, 1989). […] These peptides all contain the RGD sequence, are rich in cysteine and bind with high affinity to the surface of platelets. The in vitro metastatic characterisation of osteosarcoma is not yet well understood. In the present study, we examined in vitro the TCIPA caused by Saos-2 human osteosarcoma cells. We probed Saos-2 TCIPA with a variety of inhibitors and monoclonal antibodies in order to characterise fully the mechanism of this phenomenon. […] Materals and metbods Materials Saos-2 human osteosarcoma cells were obtained from ATCC (American Type Culture Collection) Laboratory. Crude venom of Agkistrodon rhodostoma (or Calloselasma rhodos- toma) was purchased from Latoxan (Rosans, France) and stored at -20?C. Rhodostomin was purified from venom of A. rhodostoma as previously described (Huang et al., 1989, 1990). GRGDS was purchased from Peninsula Laboratories, CA, USA. Gly-Arg-Gly-Glu-Ser (GRGES) was synthesised by the Biochemical Institute, College of Medicine, National Taiwan University. Apyrase (grade III), heparin, hirudin (grade IV from leeches), fibronectin (from bovine plasma), vitronectin (from human plasma), laminin (from basement membrane of mouse sarcoma), collagen type I (from calf skin) and type IV were obtained from Sigma (St Louis, MO, USA). Tissue thromboplastin reagent was Simplastin Excel standard (Organon Teknika, NC, USA). […]"}, "[2]": {"test_system": "Saos-2 cell adhesion to RGD-dependent ECM", "experiment": "Saos-2 cell adhesion to RGD-dependent ECM (overall)", "assay_type": "cell-based, human", "conditions": "fibronectin, vitronectin, collagen type I", "description": "Brils JownW d Canmer (15) 71, 265-270 ? 1995 S9okon Press Al rghts reserved 0007-0920/95 $9.00 V The Arg-Gly-Asp-containing peptide, rhodostomin, inhibits in vitro cell adhesion to extracellular matrices and platelet aggregation caused by Saos-2 human osteosarcoma cells H-S Chiang', R-S Yang2 and T-F Huang' 'Pharmacological Institute and 'Department of Orthopaedics, College of Medicine, National Taiwan UniversitY, Taipei, Taiwan. Sumary Saos-2 cells, derived from a primary human osteosarcoma, caused dose-dependent platelet aggrega- tion in heparinised human platelet-rich plasma. […] The cell suspension shortened the plasma recalcification times of normal, factor VIII-deficient and factor IX-deficient human plasmas in a dose- dependent manner. […] Moreover, a monoclonal antibody (MAb) against human tissue factor completely abolished TCIPA. […] Keywords: osteosarcoma; platelet aggregation; tissue factor: integrin; extracellular matrix: Arg-Gly-Asp- containing peptide The formation of a metastatic lesion is the result of a com- plex series of events called the 'metastatic cascade'. Following intravasation, circulating tumour cells interact with a variety of host cells such as effectors of the cellular immune res- ponses, endothelial cells and platelets. The interaction of tumour cells and host platelets may promote the metastatic process (Honn et al., 1992). […]"}},
  "note": "Where two headings read alike, the source gives them in different places.",
  "data": [
    {"compound": "N=C(N)NCCC[C@H](NC(=O)CN)C(=O)NCC(=O)N[C@@H](CC(=O)O)C(=O)N[C@@H](CO)C(=O)O", "note": "[GRGDS, Gly-Arg-Gly-Asp-Ser]", "values": [
      {"measurement": "IC50", "setting": "[1]", "value": 560, "unit": "µM"}
    ]},
    {"compound": "hirudin", "values": [
      {"measurement": "Inhibition of Saos-2 TCIPA", "setting": "[1]; hirudin 5 U ml-1, PRP preincubated at 37C for 2 min", "value": "completely inhibited"}
    ]},
    {"compound": "apyrase", "values": [
      {"measurement": "Inhibition of Saos-2 TCIPA", "setting": "[1]; apyrase 0.5 U ml-1 final concentration in PRP, preincubated at 37C for 2 min", "value": "did not inhibit"},
      {"measurement": "Lag phase preceding TCIPA", "setting": "[1]; apyrase 0.5 U ml-1 in PRP", "value": "prolonged"}
    ]},
    {"compound": "rhodostomin", "values": [
      {"measurement": "IC50", "setting": "[1]", "value": 0.03, "unit": "µM"},
      {"measurement": "Potency relative to GRGDS in inhibiting TCIPA, on a molar basis", "setting": "[1]; ratio of IC50 values", "value": "about 18 000 fold"},
      {"measurement": "Inhibition of Saos-2 TCIPA", "setting": "[1]; rhodostomin, pretreatment of platelets", "value": "complely inhibited"},
      {"measurement": "Potency relative to GRGDS in inhibiting Saos-2 cell adhesion to RGD-dependent ECM, on a molar basis", "setting": "[2]", "value": "~1000", "unit": "fold"}
    ]},
    {"compound": "heparin", "values": [
      {"measurement": "Lag phase preceding platelet aggregation", "setting": "[1]; heparin raised from 1 to 6 units ml-1 (data not shown)", "value": "markedly prolonged"}
    ]},
    {"compound": "Gly-Arg-Gly-Glu-Ser [GRGES, peptide synthesised by the Biochemical Institute, National Taiwan University]", "values": [
      {"measurement": "Inhibition of Saos-2 TCIPA", "setting": "[1]; GRGES 1 mg ml-1, pretreatment of platelets", "value": "no significant effect"}
    ]}
  ]
}
